Measured values published in patent US6951647B2, “T cell binding ligand peptides and method of inducing a cellular immune response” (Cel-Sci Corporation, priority 2001, dated 2005).
Values joined by “and” are separate entries in the source; they are usually repeats but may differ in a detail not shown here. Equal values may be shown once.

How the values were obtained:
[1] = tested on: modified HGP-30 (mH, SEQ ID NO:6); assay: Isotype analysis (ELISA) of anti-mH antibody in sera of immunized mice; type: in vivo; set-up: IgG1 / IgG2a / IgG2b / IgG3: unit not given here; details: for IgG1 / IgG2a / IgG2b / IgG3: ELISA signal, day 42 test bleeding; for Ig1, serial dilution 1:200 / Ig1, serial dilution 1:800 / Ig1, serial dilution 1:3200 / Ig1, serial dilution 1:12800 / Ig1, serial dilution 1:51200 / Ig1, serial dilution 1:204800 / Ig2a, serial dilution 1:200 / Ig2a, serial dilution 1:800 / Ig2a, serial dilution 1:3200 / Ig2a, serial dilution 1:12800 / Ig2a, serial dilution 1:51200 / Ig2a, serial dilution 1:204800 / Ig2b, serial dilution 1:200 / Ig2b, serial dilution 1:800 / Ig2b, serial dilution 1:3200 / Ig2b, serial dilution 1:12800 / Ig2b, serial dilution 1:51200 / Ig2b, serial dilution 1:204800 / Ig3, serial dilution 1:200 / Ig3, serial dilution 1:800 / Ig3, serial dilution 1:3200 / Ig3, serial dilution 1:12800 / Ig3, serial dilution 1:51200 / Ig3, serial dilution 1:204800: day 28 pool
Description: (§1) Mice in groups (5-10 animals per group as designated) are immunized with the LEAPS constructs (25 μg/dose) of SEQ ID NO's:37, 38 and 39, in 0.2 mL emulsified 1:1 with adjuvant (Seppic's ISA-51 or Corixa's microfluidized MPL S/E) on days 0 and 14. Mice are evaluated by Delayed Type of Hypersensitivity (DTH) by inoculation on day 26 with 20 μl of a solution of saline or mH (SEQ ID NO:6) (25 μg in saline) in the left or right ear respectively. The DTH response is determined by measurement of the ear thickness 48 hours later and expressed as increase in ear thickness (mm) of experimental ear compared to that of the control ear. Individual animal sera are collected for measurement of antibody on day 28, 42, 63 and 77. Sera from individual animals and group pools are evaluated for specific anti-mH antibody, for total antibody, IgG1, IgG2a and IgG3 antibody isotype and cross clade titer at selected time points as indicated.
The results of an isotype analysis of day 42 test bleedings with G′-mH (SEQ ID NO:37), G-mH (SEQ ID NO:38), J-mH (SEQ ID NO:39), F-mH (SEQ ID NO:40) and F-HGP-30 (SEQ ID NO:41), are shown in Table 1.
An isotype analysis for pools of day 28 test bleedings G-mH, G′-mH and m-HGP-30/KLH using either MPL S/E or ISA51 as adjuvant, are shown in Table 3.

modified HGP-30 = assay: ELISA antibody screening of sera of immunized mice on modified HGP-30; type: in vivo; details: for ELISA test antigen Modified HGP-30: day 42 test bleeding
Description: as §1, with “indicated. […]” for “indicated.”

B Clade = assay: ELISA cross clade recognition by sera of immunized mice, B Clade; type: in vivo; details: for ELISA test antigen B Clade: day 42 test bleeding
Description: as §1
(§2) The mouse sera for the ELISA was used at a dilution of 1:200. Again, clearly, the construct provides higher signals indicative of higher levels of the antibodies that recognized other clades besides the parental one (Clade B) of mH.
(§3) A cross clade analysis for pools of day 42 test bleedings from the same groups as used in Table 3, were obtained and the results are shown in Table 4.

C Clade = assay: ELISA cross clade recognition by sera of immunized mice, C Clade; type: in vivo; details: for ELISA test antigen C Clade: day 42 test bleeding
Description: as §1, §2, §3

D Clade [2] = assay: ELISA cross clade recognition by sera of immunized mice, D Clade; type: in vivo; details: for ELISA test antigen D Clade: day 42 test bleeding, Group Average
Description: as §1, §2, §3

E Clade [3] = assay: ELISA cross clade recognition by sera of immunized mice, E Clade; type: in vivo; details: for ELISA test antigen E Clade: day 42 test bleeding, Group Average
Description: as §1, §2, §3

Peptide G [4] = assay: Specificity analysis for the TCBL carrier, ELISA plates coated with Peptide G; type: in vivo, Mice; details: for A 490 1:200 dilution on plates coated with Peptide G: Average
Description: as §1
A specificity analysis for the TCBL or KLH carrier for pools of day 42 test bleedings from the G-mH, G′-mH and mH/KLH, using either MPL S/E or ISA51 as adjuvant, was carried out (all sera assayed at a dilution of 1:200) and the results are shown in Table 5. […] This observation is especially significant for vaccines used on a repetitive basis, such as, either a vaccine that requires more frequent intervals between boosters for maintenance of cellular reactivity or as a therapeutic vaccine.

D Clade [5] = assay: ELISA cross clade recognition by sera of immunized mice, D Clade; type: in vivo; details: day 42 test bleeding, individual mouse
E Clade [6] = assay: ELISA cross clade recognition by sera of immunized mice, E Clade; type: in vivo; details: day 42 test bleeding, individual mouse
Peptide G [7] = assay: Specificity analysis for the TCBL carrier, ELISA plates coated with Peptide G; type: in vivo, Mice; details: individual animal
[8] = group without '(with MPL)' (ISA51)
[9] = day 63 test bleeding, sera 1:200, individual mouse

## NGQ EEK AGV VST GLI GGG ATL YSV HQR IDV KDT KEA LEK IEE EQN KS (DGQEEKAGVVSTGLIGGGEAQNTTYL) [SEQ ID NO: 58, Peptide G linked by GGG spacer to modified HGP-30 (mH)]
[1]; group Average
  IgG1: 1.400
  IgG2a: 0.367
  IgG2b: 0.478
  IgG3: 0.531
[1]; individual mouse
  IgG1: 1.810 and 2.606 and 1.738 and 0.123 and 1.649 and 2.651 and 0.562 and 0.431 and 0.042 and 2.391
  IgG2a: 0.152 and 1.386 and 0.074 and 0.005 and 0.129 and 1.619 and 0.047 and 0.031 and 0.025 and 0.200
  IgG2b: 0.223 and 2.038 and 0.464 and 0.017 and 0.025 and 1.613 and 0.059 and 0.038 and 0.183 and 0.123
  IgG3: 0.388 and 1.817 and 0.033 and −0.013 and 0.152 and 2.378 and 0.000 and 0.106 and 0.089 and 0.358
[1]; [8]
  Ig1, serial dilution 1:200: 0.507
  Ig1, serial dilution 1:800: 0.173
  Ig1, serial dilution 1:3200: 0.025
  Ig1, serial dilution 1:12800: 0.009
  Ig1, serial dilution 1:51200: 0.014
  Ig1, serial dilution 1:204800: 0.000
  Ig2a, serial dilution 1:200: 0.000
  Ig2a, serial dilution 1:800: 0.015
  Ig2a, serial dilution 1:3200: 0.000
  Ig2a, serial dilution 1:12800: 0.003
  Ig2a, serial dilution 1:51200: 0.006
  Ig2a, serial dilution 1:204800: 0.000
  Ig2b, serial dilution 1:200: 0.017
  Ig2b, serial dilution 1:800: 0.000
  Ig2b, serial dilution 1:3200: 0.004
  Ig2b, serial dilution 1:12800: 0.001
  Ig2b, serial dilution 1:51200: 0.000
  Ig2b, serial dilution 1:204800: 0.000
  Ig3, serial dilution 1:200: 0.009
  Ig3, serial dilution 1:800: 0.002
  Ig3, serial dilution 1:3200: 0.000
  Ig3, serial dilution 1:12800: 0.000
  Ig3, serial dilution 1:51200: 0.000
  Ig3, serial dilution 1:204800: 0.000
[1]; with MPL
  Ig1, serial dilution 1:200: 0.103
  Ig1, serial dilution 1:800: 0.022
  Ig1, serial dilution 1:3200: 0.003
  Ig1, serial dilution 1:12800: 0.000
  Ig1, serial dilution 1:51200: 0.000
  Ig1, serial dilution 1:204800: 0.000
  Ig2a, serial dilution 1:200: 0.248
  Ig2a, serial dilution 1:800: 0.048
  Ig2a, serial dilution 1:3200: 0.000
  Ig2a, serial dilution 1:12800: 0.000
  Ig2a, serial dilution 1:51200: 0.002
  Ig2a, serial dilution 1:204800: 0.000
  Ig2b, serial dilution 1:200: 0.147
  Ig2b, serial dilution 1:800: 0.026
  Ig2b, serial dilution 1:3200: 0.022
  Ig2b, serial dilution 1:12800: 0.006
  Ig2b, serial dilution 1:51200: 0.007
  Ig2b, serial dilution 1:204800: 0.018
  Ig3, serial dilution 1:200: 0.265
  Ig3, serial dilution 1:800: 0.044
  Ig3, serial dilution 1:3200: 0.006
  Ig3, serial dilution 1:12800: 0.001
  Ig3, serial dilution 1:51200: 0.000
  Ig3, serial dilution 1:204800: 0.000
Modified HGP-30; day 42, first set of groups (animals 4637-4648, 4674-4678), individual animal
  A 490 1:200 dilution on plates coated with modified HGP-30: 0.257 A 490 and 0.571 A 490 and 0.065 A 490 and 0.392 A 490 and 1.008 A 490 and 0.021 A 490
Modified HGP-30; day 42, first set of groups, Average
  A 490 1:200 dilution on plates coated with modified HGP-30: 0.386 A 490
Modified HGP-30; day 42, second set of groups (animals 4662-4673, 4679-4683), individual animal
  A 490 1:200 dilution on plates coated with modified HGP-30: 0.051 A 490 and 0.052 A 490 and 1.102 A 490 and 0.005 A 490 and 0.000 A 490 (2×)
Modified HGP-30; day 42, second set of groups, Average
  A 490 1:200 dilution on plates coated with modified HGP-30: 0.202 A 490
Modified HGP-30; group (A), Group Average
  ELISA test antigen Modified HGP-30: 0.576
Modified HGP-30; group (A), individual mouse
  ELISA test antigen Modified HGP-30: 0.470 and 1.103 and 0.046 and 0.390 and 1.297 and 0.153
Modified HGP-30; group (B), Group Average
  ELISA test antigen Modified HGP-30: 0.394
Modified HGP-30; group (B), individual mouse
  ELISA test antigen Modified HGP-30: 0.187 and 0.188 and 1.848 and 0.145 and 0.000 (2×)
Modified HGP-30; [9]
  ELISA signal on modified HGP-30: 1.831 and 2.453 and 2.530 and 1.740 and 0.398 and 1.240 and 2.665 and 1.014 and 0.444 and 0.304
B Clade; group (A), Group Average
  ELISA test antigen B Clade: 0.005
B Clade; group (A), individual mouse
  ELISA test antigen B Clade: 0.000 (5×) and 0.028
B Clade; group (B), Group Average
  ELISA test antigen B Clade: 0.022
B Clade; group (B), individual mouse
  ELISA test antigen B Clade: 0.000 (3×) and 0.006 and 0.079 and 0.046
B Clade; [9]
  ELISA signal on B Clade: 0.000 (6×) and 0.316 and 0.148 and 0.006 and 0.230
C Clade; group (A), Group Average
  ELISA test antigen C Clade: 0.018
C Clade; group (A), individual mouse
  ELISA test antigen C Clade: 0.000 (4×) and 0.004 and 0.104
C Clade; group (B), Group Average
  ELISA test antigen C Clade: 0.009
C Clade; group (B), individual mouse
  ELISA test antigen C Clade: 0.003 (2×) and 0.000 (3×) and 0.050
C Clade; [9]
  ELISA signal on C Clade: 0.125 and 0.359 and 0.238 and 0.047 and 0.005 and 0.076 and 0.643 and 0.000 (3×)
D Clade [2]; group (A)
  ELISA test antigen D Clade: 0.000
D Clade [2]; group (B)
  ELISA test antigen D Clade: 0.002
D Clade [2]; [9]
  ELISA signal on D Clade: 0.025 and 0.646 and 0.000 (6×) and 0.001 and 0.016
E Clade [3]; group (A)
  ELISA test antigen E Clade: 0.000
E Clade [3]; group (B)
  ELISA test antigen E Clade: 0.000
E Clade [3]; [9]
  ELISA signal on E Clade: 0.000 (8×) and 0.016 and 0.504
Peptide G [4]; day 42, first set of groups
  A 490 1:200 dilution on plates coated with Peptide G: 0.099 A 490
Peptide G [4]; day 42, second set of groups
  A 490 1:200 dilution on plates coated with Peptide G: 0.062 A 490
Peptide G [4]; day 42 sera at 1:200, Table 5, in words
  Reactivity toward the delivery vehicle TCBL: minimal reactivity
D Clade [5]; group (A)
  ELISA test antigen D Clade: 0.000
D Clade [5]; group (B)
  ELISA test antigen D Clade: 0.005 and 0.006 and 0.000 (4×)
E Clade [6]; group (A)
  ELISA test antigen E Clade: 0.000
E Clade [6]; group (B)
  ELISA test antigen E Clade: 0.000
Peptide G [7]; day 42, first set of groups (animals 4637-4648, 4674-4678)
  A 490 1:200 dilution on plates coated with Peptide G: 0.195 A 490 and 0.122 A 490 and 0.092 A 490 and 0.088 A 490 and 0.047 A 490
Peptide G [7]; day 42, second set of groups (animals 4662-4673, 4679-4683)
  A 490 1:200 dilution on plates coated with Peptide G: 0.024 A 490 and 0.044 A 490 and 0.062 A 490 and 0.033 A 490 and 0.060 A 490 and 0.151 A 490
